Where a name gives a salt, the structure may show the parent alone. Read-outs that look alike come from different tables or passages of the source. One block for each compound: values may come before it.
Columns and labels:
[1] = Pharmacokinetics after pulmonary inhalation of apomorphine; format: in vivo, patients; conditions: for AUC(0-t) / AUC(0-inf) / Cmax / Tmax: human, plasma, inhaled or intranasal; for AUC(0-t): read-out: AUC(0-t), Mean (SD) (converted); for AUC(0-inf): read-out: AUC(0-∞), Mean (SD) (converted); for Cmax: read-out: Cmax, Mean (SD)
[2] = tested on: Parkinson's Disease patients; experiment: Therapeutic effect (conversion from off to on state) after pulmonary inhalation, clinical trial; format: in vivo
[3] = Safety results: treatment emergent adverse events after inhaled apomorphine; format: in vivo, patients; conditions: Nominal Doses of 400 μg, 1000 μg and 1600 μg
Procedure: Safety results: Few patients experienced treatment emergent adverse events (TEAEs) and there were no notable differences in incidence or types of TEAEs among the treatment groups. […] Most common TEAEs at <24 h post dose were nervous system disorders.

[4] = Visual assessment of pMDI suspension formulations; format: physicochemical
Procedure: Nine formulations (see Table 1 and Table 2) were manufactured.
Reduction of the drug concentration (300 μg/50 μl) was investigated in Formulations 4-6 (see FIGS. 5-8).

[5] = nasal administration; cited from earlier work
[6] = tested on: Parkinson's Disease patients; conditions: injected under the skin; cited from earlier work
[7] = Solubility in pMDI propellant formulations; format: physicochemical; conditions: within ethanol-based HFA 134a pMDI formulations
Procedure: Previously a low dose (<25 μg/50 μl) HFA134a/HFA 227 solution formulation has been produced but only at high ethanol contents (50% w/w).

[8] = 1000 μg inhaled, N = 6, 30% apomorphine in 70% lactose blend

k, Mean (SD) ([1]; 400 μg inhaled, N = 6, 20% apomorphine in 80% lactose blend): 0.01 (0.00)
tmax, Mean (SD) ([1]; 400 μg inhaled, N = 6, 20% apomorphine in 80% lactose blend, in min): 1.0 (0.0)
AUC(0-∞), Mean (SD) [1, 8]: 216.93 (99.30) ng · min/mL
k, Mean (SD) [1, 8]: 0.01 (0.00)
k, Mean (SD) ([1]; 1600 μg inhaled, N = 6, 30% apomorphine in 70% lactose blend): 0.02 (0.00)
AUC(0-t) ([1]; 400 ug): 0.792 ng·h/mL
AUC(0-inf) ([1]; 400 ug): 0.945 ng·h/mL
Cmax ([1]; 400 ug): 3.03 ng/mL
Tmax ([1]; 1000 ug, 1000 μg inhaled, N = 6, 30% apomorphine in 70% lactose blend, read-out: tmax, Mean (SD) (converted)): 2.6 min
AUC(0-t) ([1]; 1000 ug): 2.81 ng·h/mL
Cmax ([1]; 1000 ug): 10 ng/mL
Tmax ([1]; 1600 ug, 1600 μg inhaled, N = 6, 30% apomorphine in 70% lactose blend, read-out: tmax, Mean (SD) (converted)): 2.2 min
AUC(0-t) ([1]; 1600 ug): 4.51 ng·h/mL
AUC(0-inf) ([1]; 1600 ug): 5.03 ng·h/mL
Cmax ([1]; 1600 ug): 11.9 ng/mL
Tmax ([1]; Tmax / time of peak apomorphine plasma concentration, pulmonary inhalation): 1 to 3 min
dose proportionality of AUC(0-t), AUC(0-∞) and Cmax ([1]; pulmonary inhalation, 400-1600 μg): Dose proportionality was observed
suspension behaviour (visual assessment) ([4]; 264 μg/50 μl suspension in HFA 227): cream (float)
suspension behaviour (visual assessment) ([4]; 300 μg/50 μl in pure HFA134a): rapidly sediment
suspension behaviour (visual assessment) ([4]; 600 μg/50 μl in pure HFA134a): rapidly sedimented
density ([4]; density matched at approximately 60% w/w HFA 227 and 40% w/w HFA134a): about 1.33 g/ml
Structure (SMILES): CN1CCc2cccc3c2[C@H]1Cc1ccc(O)c(O)c1-3 [Apomorphine, apomorphine]
mean duration of the therapeutic effect ([2]; clinical trial, pulmonary inhalation): 75 min
onset of the therapeutic effect (conversion) ([2]; majority of patients, after inhaling apomorphine): ≤ 10 min
conversion from the off to the on state ([2]; some patients, as quickly as, pulmonary inhalation): 2 min
tolerability [3]: well tolerated
Tmax [5]: approximately 15 minutes
period for which the effect is maintained [6]: about 60 minutes
time to bring about an on time [6]: 7 to 10 min

solubility [7]: low solubility
Structure (SMILES): CN1CCc2cccc3c2[C@H]1Cc1ccc(O)c(O)c1-3 [apomorphine hydrochloride]

— US20100288276A1, “COMPOSITIONS FOR TREATING PARKINSON'S DISEASE” (VECTURAL LIMITED, priority 2007, published 2010)
